# Laboratory results reported in PMC6522510 (Nature Communications, 2019).
# Where two headings read alike, the source gives them in different places. Peptide text beside a SMILES is read from it.
# Assays:
# Design in all cases: species or system AML cell lines (8); Primary HTS, single concentration about 10 uM, Cell Titer Glo viability; log10 luminescence, per cent inhibition relative to cycloheximide control
# Conditions in all cases: 72 h, relative to cycloheximide control, log10 luminescence, inhibitor
# CHRF288-11 = test system: CHRF288-11
# CMK = test system: CMK
# CMS = test system: CMS
# M07e = test system: M07e
# ML-2 = test system: ML-2
# MOLM-13 = test system: MOLM-13
# MV4-11 = test system: MV4-11
# U937 = test system: U937
Structure (SMILES),"CHRF288-11 %inh (CHRF288-11; CHRF288-11 %inh, 10 µM)","CMK %inh (CMK; CMK %inh, 10 µM)","CMS %inh (CMS; CMS %inh, 10 µM)","M07e %inh (M07e; M07e %inh, 10 µM)","ML-2 %inh (ML-2; ML-2 %inh, 10 µM)","MOLM-13 %inh (MOLM-13; MOLM-13 %inh, 10 µM)","MV4-11 %inh (MV4-11; MV4-11 %inh, 10 µM)","U937 %inh (U937; U937 %inh, 10 µM)",CHRF288-11 %inh (CHRF288-11),CMK %inh (CMK),CMS %inh (CMS),M07e %inh (M07e),ML-2 %inh (ML-2),MOLM-13 %inh (MOLM-13),MV4-11 %inh (MV4-11),U937 %inh (U937)
"CO[C@@H]1[C@H](OC(=O)/C=C/C=C/C=C/C=C/C(=O)O)CC[C@]2(CO2)[C@H]1[C@@]1(C)O[C@@H]1CC=C(C)C [SJ000556696-2, FUMAGILLIN]",24.31%,-0.114%,7.757%,1.679%,3.251%,10.06%,9.134%,20.26%,,,,,,,,
"CC(C)C[C@H](N)C(=O)N[C@H](C(=O)N[C@H](C(=O)N[C@@H](Cc1ccc(O)cc1)C(=O)N1CCC[C@H]1C(=O)N[C@@H](Cc1c[nH]c2ccccc12)C(=O)N[C@H](C(=O)O)[C@@H](C)O)C(C)C)C(C)C [SJ000556698-1, SPINORPHIN] (H-LVVYPWT-OH)",,,,,,,,,-1.007%,0.1545%,4.762%,-3.453%,-1.792%,-0.8143%,-0.248%,0.1872%
"COc1ccc(S(=O)(=O)N2CCN(C(=O)c3ccc(-c4ccccc4)cc3)CC2C(=O)NO)cc1 (stereo not drawn) [SJ000556700-1, N-HYDROXY-1-(4-METHOXYPHENYL)SULFONYL-4-(4-BIPHENYLCARBONYL)PIPERAZINE-2-CARBOXAMIDE]",,,,,,,,,142.9%,129.1%,90.96%,105.4%,62.36%,33.07%,72.89%,72.9%
"C[C@@H]1CN(c2c(F)c(N)c3c(=O)c(C(=O)O)cn(C4CC4)c3c2F)C[C@H](C)N1 [SJ000556731-1, SPARFLOXACIN]",-1.018%,-4.344%,-1.257%,-0.05975%,2.718%,-3.504%,7.588%,1.66%,,,,,,,,
"C[C@@H]1CN(c2c(F)c(N)c3c(=O)c(C(=O)O)cn(C4CC4)c3c2F)C[C@H](C)N1 [SJ000556731-2, SPARFLOXACIN]",0.9037%,6.161%,-0.1151%,-2.464%,2.462%,6.829%,1.115%,3.77%,,,,,,,,
"C=CC[N+]1([C@H]2C[C@H]3[C@@H]4CC[C@H]5C[C@H](O)[C@@H](N6CCOCC6)C[C@]5(C)[C@H]4CC[C@]3(C)[C@H]2OC(C)=O)CCCC1 [SJ000556732-1, ROCURONIUM BROMIDE]",,,,,,,,,-4.633%,-9.307%,-2.237%,-1.372%,-0.2233%,-4.64%,0.4653%,-2.855%
"O=C(O[C@H]1C[C@H]2CC[C@@H](C1)[N+]21CCCC1)C(O)(c1ccccc1)c1ccccc1 [SJ000556733-1, TROSPIUM CHLORIDE]",1.082%,-8.303%,1.711%,0.3246%,2.085%,-2.987%,-0.2163%,-2.05%,,,,,,,,
"O=C(O[C@H]1C[C@H]2CC[C@@H](C1)[N+]21CCCC1)C(O)(c1ccccc1)c1ccccc1 [SJ000556733-2, TROSPIUM CHLORIDE]",0.2164%,-0.8375%,-2.193%,4.258%,4.125%,0.236%,1.274%,-0.2464%,,,,,,,,
"Cc1cn([C@@H]2C[C@@H](O)[C@H](CO)O2)c(=O)[nH]c1=O [SJ000556735-1, TELBIVUDINE]",,,,,,,,,5.146%,-3.078%,-2.406%,0.6931%,2.339%,-1.046%,3.878%,2.103%
